Data set [1] deals with Hepatotoxicity.
Data set [2] relates to Hepatotoxicity. This is another data set of the same source.
Data set [3] has as its system Hepatotoxicity. This is another data set of the same source.
In data set [4] the test system is Hepatotoxicity. This is another data set of the same source.
In data set [5] the test system is Hepatotoxicity. This is another data set of the same source.
Data set [6] deals with Hepatotoxicity. The source holds these as a separate data set.
Data set [7] has as its system Hepatotoxicity. This is another data set of the same source.
For data set [8], the system named is Hepatotoxicity. The source holds these as a separate data set.
Data set [9] has as its system Hepatotoxicity. This is another data set of the same source.
In data set [10] the test system is Hepatotoxicity. The source holds these as a separate data set.
The test system of data set [11] is Hepatotoxicity. This is another data set of the same source.
Data set [12] has as its system Hepatotoxicity. This is another data set of the same source.
Data set [13] concerns Hepatotoxicity. The source holds these as a separate data set.
For data set [14], the system named is Hepatotoxicity. The source holds these as a separate data set.
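Wherever HepSE Combined Scores is given: combined hepatic side effect score as listed in the training data of the Drug Induced Liver Injury Prediction System (DILIps).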
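Wherever HepSE bilirubinemia is given: bilirubinemia hepatic side effect score drawn from the DILIps training data, a prediction system for drug-induced liver injury; call rule not given here.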
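Wherever HepSE cholecystitis is given: Cholecystitis-related hepatic side effect score drawn from the DILIps (drug-induced liver injury prediction) training data set; call rule not given here.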
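Wherever HepSE cholelithiasis is given: hepatic side effect score for cholelithiasis, drawn from the DILIps training data for predicting drug-induced liver injury; call rule not given here.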
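Wherever HepSE cirrhosis is given: cirrhosis hepatic side effect score taken from the DILIps (drug-induced liver injury prediction) training set; call rule not given here.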
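Wherever HepSE elevated liver function tests is given: hepatic side effect score for raised liver function tests, as recorded in the DILIps training set used for predicting drug-induced liver injury.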
Wherever HepSE hepatic failure is given: call rule not given here.
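Wherever HepSE hepatic necrosis is given: score of hepatic side effects for hepatic necrosis, drawn from the training data of DILIps, a prediction system for drug-induced liver injury; call rule not given here.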
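Wherever HepSE hepatitis is given: Hepatitis-related hepatic side effect score taken from the training data of DILIps, a prediction system for drug-induced liver injury; call rule not given here.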
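Wherever HepSE hepatomegaly is given: hepatic side effect score for hepatomegaly, taken from the training set of the DILIps drug-induced liver injury prediction system; call rule not given here.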
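Wherever HepSE jaundice is given: Jaundice-related hepatic side-effect score drawn from the training data of the DILIps (drug-induced liver injury prediction system); call rule not given here.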
Wherever HepSE liver disease is given: call rule not given here.
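Wherever HepSE liver fatty is given: hepatic side effect score for fatty liver, taken from the DILIps training set for predicting drug-induced liver injury; call rule not given here.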
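Wherever HepSE liver function tests abnormal is given: hepatic side effect score taken from the DILIps (drug-induced liver injury prediction system) training data, here covering abnormal liver function test findings.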

Turning to `CC(C)/N=c1\cc2n(-c3ccc(Cl)cc3)c3ccccc3nc-2cc1Nc1ccc(Cl)cc1` [CLOFAZIMINE], the HepSE_bilirubinemia with Hepatotoxicity [1] is reported as 0. In the data set with Hepatotoxicity [2], the HepSE_cholecystitis is 0. In the data set on Hepatotoxicity [3], the HepSE_cholelithiasis was 0. Besides, the HepSE_cirrhosis in the data set on Hepatotoxicity [4] worked out at 0. For the same compound, the “HepSE_elevated liver function tests” value in the data set on Hepatotoxicity [5] is 0. The compound also came in with a HepSE_hepatic failure in the data set with Hepatotoxicity [6] of 0. This compound also displayed a HepSE_hepatic necrosis with Hepatotoxicity [7] of 0. The HepSE_hepatitis with Hepatotoxicity [8] is on record as 1. The compound further came in with a HepSE_hepatomegaly in the data set with Hepatotoxicity [9] of 1. For the same compound, in the data set on Hepatotoxicity [10], the HepSE_jaundice is 1. Besides, the HepSE_liver disease with Hepatotoxicity [11] came out at 0. For the same compound, the HepSE_liver fatty with Hepatotoxicity [12] amounted to 0. Further, the “HepSE_liver function tests abnormal” value with Hepatotoxicity [13] was found to be 0. For the same compound, the “HepSE_Combined Scores” value in the data set on Hepatotoxicity [14] is 3.

As to `C/C(=C\C(=O)OCCCCCCCCC(=O)O)C[C@@H]1OC[C@H](C[C@@H]2O[C@H]2[C@@H](C)[C@H](C)O)[C@@H](O)[C@H]1O` [MUPIROCIN], in the data set with Hepatotoxicity [1], the HepSE_bilirubinemia is 0. Besides, the HepSE_cholecystitis with Hepatotoxicity [2] came out at 0. Besides, the HepSE_cholelithiasis in the data set with Hepatotoxicity [3] came out at 0. Also, the HepSE_cirrhosis in the data set on Hepatotoxicity [4] stood at 0. The “HepSE_elevated liver function tests” value with Hepatotoxicity [5] worked out at 0. The compound further yielded a HepSE_hepatic failure in the data set with Hepatotoxicity [6] of 0. The HepSE_hepatic necrosis in the data set with Hepatotoxicity [7] was 0. The compound also gave a HepSE_hepatitis in the data set on Hepatotoxicity [8] of 0. Further, the HepSE_hepatomegaly in the data set on Hepatotoxicity [9] is on record as 0. This compound had a HepSE_jaundice in the data set with Hepatotoxicity [10] of 0. This compound returned a HepSE_liver disease in the data set with Hepatotoxicity [11] of 0. For the same compound, the HepSE_liver fatty with Hepatotoxicity [12] amounted to 0. Further, the “HepSE_liver function tests abnormal” value with Hepatotoxicity [13] is recorded as 0. Besides, the “HepSE_Combined Scores” value with Hepatotoxicity [14] turned out to be 0.

Take `CSc1ccc2c(c1)N(CCC1CCCCN1C)c1ccccc1S2` (stereo not given) [THIORIDAZINE]: the HepSE_bilirubinemia in the data set with Hepatotoxicity [1] is given as 0. The compound further came in with a HepSE_cholecystitis in the data set with Hepatotoxicity [2] of 0. The compound also showed a HepSE_cholelithiasis in the data set on Hepatotoxicity [3] of 0. This compound also had a HepSE_cirrhosis in the data set with Hepatotoxicity [4] of 0. In addition, the “HepSE_elevated liver function tests” value with Hepatotoxicity [5] was found to be 0. In the data set on Hepatotoxicity [6], the HepSE_hepatic failure turned out to be 0. Besides, the HepSE_hepatic necrosis with Hepatotoxicity [7] was determined as 0. For the same compound, the HepSE_hepatitis with Hepatotoxicity [8] amounted to 0. Besides, the HepSE_hepatomegaly in the data set on Hepatotoxicity [9] came to 0. For the same compound, in the data set on Hepatotoxicity [10], the HepSE_jaundice is reported as 1. This compound had a HepSE_liver disease in the data set on Hepatotoxicity [11] of 0. Moreover, the HepSE_liver fatty with Hepatotoxicity [12] was found to be 0. Besides, the “HepSE_liver function tests abnormal” value in the data set with Hepatotoxicity [13] worked out at 0. The “HepSE_Combined Scores” value in the data set on Hepatotoxicity [14] was 1.

For `C=C1C[C@@H]2[C@H](CC[C@]3(C)C(=O)CC[C@@H]23)[C@@]2(C)C=CC(=O)C=C12` [EXEMESTANE], the HepSE_bilirubinemia in the data set with Hepatotoxicity [1] stood at 0. The same compound returned a HepSE_cholecystitis in the data set on Hepatotoxicity [2] of 0. In addition, the HepSE_cholelithiasis in the data set on Hepatotoxicity [3] came out at 0. The same compound yielded a HepSE_cirrhosis in the data set with Hepatotoxicity [4] of 0. In addition, the “HepSE_elevated liver function tests” value in the data set on Hepatotoxicity [5] is recorded as 0. In addition, the HepSE_hepatic failure in the data set with Hepatotoxicity [6] was 0. In addition, the HepSE_hepatic necrosis in the data set on Hepatotoxicity [7] worked out at 0. The same compound showed a HepSE_hepatitis in the data set on Hepatotoxicity [8] of 1. This compound also yielded a HepSE_hepatomegaly in the data set with Hepatotoxicity [9] of 0. The compound also had a HepSE_jaundice in the data set with Hepatotoxicity [10] of 0. The compound also had a HepSE_liver disease in the data set with Hepatotoxicity [11] of 0. Also, in the data set with Hepatotoxicity [12], the HepSE_liver fatty was 0. Moreover, the “HepSE_liver function tests abnormal” value in the data set on Hepatotoxicity [13] was 0. The “HepSE_Combined Scores” value in the data set on Hepatotoxicity [14] is on record as 1.

As for `CN1C(=O)CC(C)(c2ccccc2)C1=O` (stereo not given) [METHSUXIMIDE], the HepSE_bilirubinemia with Hepatotoxicity [1] came out at 0. The HepSE_cholecystitis in the data set with Hepatotoxicity [2] is 0. For the same compound, the HepSE_cholelithiasis in the data set on Hepatotoxicity [3] stood at 0. The HepSE_cirrhosis with Hepatotoxicity [4] is 0. Besides, the “HepSE_elevated liver function tests” value in the data set on Hepatotoxicity [5] worked out at 0. Also, the HepSE_hepatic failure with Hepatotoxicity [6] was determined as 0. The compound further returned a HepSE_hepatic necrosis with Hepatotoxicity [7] of 0. The compound further had a HepSE_hepatitis in the data set with Hepatotoxicity [8] of 0. In the data set with Hepatotoxicity [9], this compound yielded a HepSE_hepatomegaly of 0. The HepSE_jaundice in the data set with Hepatotoxicity [10] was 0. This compound yielded a HepSE_liver disease in the data set with Hepatotoxicity [11] of 0. The compound also yielded a HepSE_liver fatty in the data set on Hepatotoxicity [12] of 0. Besides, the “HepSE_liver function tests abnormal” value in the data set with Hepatotoxicity [13] was 0. For the same compound, in the data set with Hepatotoxicity [14], the “HepSE_Combined Scores” value is 0.

The record behind these values is ChEMBL document CHEMBL1909294, “Translating clinical findings into knowledge in drug safety evaluation--drug induced liver injury prediction system (DILIps)” (PLoS Comput Biol, 2011).
